# Measurements: ChEMBL document CHEMBL6087462, “Cuminaldehyde Potentiates Antiproteolytic Peptide Efficacy via Parallel Pathways of Enhanced Inner Membrane-Damaging Activity and Inhibition of Bacterial Energy Metabolism” (J Med Chem, 2025)
# The source made the active and inactive calls. No cut-off for these calls is given here.
# What was measured:
# [1] = test system: Escherichia coli; assay: Antimicrobial activity against Escherichia coli ATCC 25922 assessed as reduction in microbial growth in presence of Na+; format: functional, organism-based
# [2] = test system: Escherichia coli; assay: Antimicrobial activity against Escherichia coli ATCC 25922 assessed as reduction in microbial growth in presence of Ca+; format: functional, organism-based
# [3] = test system: Escherichia coli; assay: Bactericidal activity against Escherichia coli K88 at 0.5 times MIC incubated for 24 hrs by time kill assay; format: functional, organism-based
# [4] = test system: Pseudomonas aeruginosa; assay: Bactericidal activity against Pseudomonas aeruginosa 27853 at 0.5 times MIC incubated for 24 hrs by time kill assay; format: functional, organism-based
# [5] = test system: Salmonella typhimurium; assay: Bactericidal activity against Salmonella typhimurium ATCC 14028 at 0.5 times MIC incubated for 24 hrs by time kill assay; format: functional, organism-based; conditions: Salmonella enterica subsp. enterica serovar Typhimurium
# [6] = test system: Klebsiella pneumoniae; assay: Bactericidal activity against Klebsiella pneumoniae at 0.5 times MIC incubated for 24 hrs by time kill assay; format: functional, organism-based
# [7] = test system: Acinetobacter baumannii; assay: Bactericidal activity against Acinetobacter baumannii at 0.5 times MIC incubated for 24 hrs by time kill assay; format: functional, organism-based
# [8] = test system: Staphylococcus aureus; assay: Bactericidal activity against Staphylococcus aureus ATCC 25923 at 0.5 times MIC incubated for 24 hrs by time kill assay; format: functional, organism-based
# [9] = test system: Staphylococcus epidermidis; assay: Bactericidal activity against Staphylococcus epidermidis ATCC 12228 at 0.5 times MIC incubated for 24 hrs by time kill assay; format: functional, organism-based
# [10] = test system: Enterococcus faecalis; assay: Bactericidal activity against Enterococcus faecalis ATCC […] at 0.5 times MIC incubated for 24 hrs by time kill assay; format: functional, organism-based
# [11] = test system: Streptococcus agalactiae; assay: Bactericidal activity against Streptococcus agalactiae CICC 10465 at 0.5 times MIC incubated for 24 hrs by time kill assay; format: functional, organism-based
# [12] = test system: Escherichia coli; assay: Synergistic bactericidal activity against Escherichia coli K88 at 0.5 times MIC incubated for 24 hrs in presence of cuminaldehyde by time kill assay; format: functional, organism-based
# [13] = test system: Pseudomonas aeruginosa; assay: Synergistic bactericidal activity against Pseudomonas aeruginosa 27853 at 0.5 times MIC incubated for 24 hrs in presence of cuminaldehyde by time kill assay; format: functional, organism-based
# [14] = test system: Salmonella typhimurium; assay: Synergistic bactericidal activity against Salmonella typhimurium ATCC 14028 at 0.5 times MIC incubated for 24 hrs in presence of cuminaldehyde by time kill assay; format: functional, organism-based; conditions: Salmonella enterica subsp. enterica serovar Typhimurium
# [15] = test system: Klebsiella pneumoniae; assay: Synergistic bactericidal activity against Klebsiella pneumoniae at 0.5 times MIC incubated for 24 hrs in presence of cuminaldehyde by time kill assay; format: functional, organism-based
# [16] = test system: Acinetobacter baumannii; assay: Synergistic bactericidal activity against Acinetobacter baumannii at 0.5 times MIC incubated for 24 hrs in presence of cuminaldehyde by time kill assay; format: functional, organism-based
# [17] = test system: Staphylococcus aureus; assay: Synergistic bactericidal activity Staphylococcus aureus ATCC 25923 at 0.5 times MIC incubated for 24 hrs in presence of cuminaldehyde by time kill assay; format: functional, organism-based
# [18] = test system: Staphylococcus epidermidis; assay: Synergistic bactericidal activity Staphylococcus epidermidis ATCC 12228 at 0.5 times MIC incubated for 24 hrs in presence of cuminaldehyde by time kill assay; format: functional, organism-based
# [19] = test system: Enterococcus faecalis; assay: Synergistic bactericidal activity Enterococcus faecalis ATCC 29212 at 0.5 times MIC incubated for 24 hrs in presence of cuminaldehyde by time kill assay; format: functional, organism-based
# [20] = test system: Streptococcus agalactiae; assay: Synergistic bactericidal activity Streptococcus agalactiae CICC 10465 at 0.5 times MIC incubated for 24 hrs in presence of cuminaldehyde by time kill assay; format: functional, organism-based
# [21] = test system: Escherichia coli; assay: Antimicrobial activity against Escherichia coli ATCC 25922 assessed as reduction in microbial growth in presence of Mg+; format: functional, organism-based
# [22] = test system: Escherichia coli; assay: Antimicrobial activity against Escherichia coli ATCC 25922 assessed as reduction in microbial growth in presence of SGF; format: functional, organism-based
# [23] = test system: Escherichia coli; assay: Antimicrobial activity against Escherichia coli ATCC 25922 assessed as reduction in microbial growth in presence of SIF; format: functional, organism-based
# [24] = test system: Escherichia coli; assay: Antimicrobial activity against Escherichia coli ATCC 25922 assessed as reduction in microbial growth in presence of LPS; format: functional, organism-based
# [25] = test system: Cell membrane; assay: Induction of outer membrane permeabilization in Escherichia coli ATCC 25922 by NPN-dye based assay; format: subcellular
# [26] = test system: Cell membrane; assay: Induction of outer membrane permeabilization in Escherichia coli ATCC 25922 in presence of cuminaldehyde by NPN-dye based assay; format: subcellular
# [27] = test system: Cell membrane; assay: Induction of cytoplasmic membrane depolarization in Escherichia coli ATCC 25922 by DiSC3(5) dye-based fluorescence assay; format: subcellular
# [28] = test system: Cell membrane; assay: Induction of cytoplasmic membrane depolarization in Escherichia coli ATCC 25922 assessed as increase in fluorescence intensity in presence of cuminaldehyde by DiSC3(5) dye-based fluorescence assay
# [29] = test system: Escherichia coli; assay: Induction of ROS accumulation in Escherichia coli ATCC 25922 at 0.5 to 1 time MIC; format: functional, organism-based
# [30] = test system: Escherichia coli; assay: Induction of ROS accumulation in Escherichia coli ATCC 25922 at 0.5 to 1 time MIC in presence of cuminaldehyde; format: functional, organism-based
# [31] = test system: Escherichia coli; assay: Upregulation of intracellular ATP level in Escherichia coli ATCC 25922 at 0.5 to 1 times MIC; format: functional, organism-based
# [32] = test system: Escherichia coli; assay: Upregulation of intracellular ATP level in Escherichia coli ATCC 25922 at 0.5 to 1 times MIC in presence of cuminaldehyde; format: functional, organism-based
# [33] = test system: Escherichia coli; assay: Antibacterial activity against Escherichia coli infected in K88-induced enteritis mouse model assessed as reduction in diarrhea score at 50 mg/kg, ip administered every 12 hrs for 2 days; format: functional, organism-based; conditions: time 2.0 day
# [34] = test system: Escherichia coli; assay: Antibacterial activity against Escherichia coli infected in K88-induced enteritis mouse model assessed as reduction in number of colonies in ileum at 50 mg/kg, ip administered every 12 hrs for 2 days; format: functional, organism-based; conditions: time 2.0 day
# [35] = test system: Escherichia coli; assay: Antibacterial activity against Escherichia coli infected in K88-induced enteritis mouse model assessed as reduction in number of colonies in colon at 50 mg/kg, ip administered every 12 hrs for 2 days; format: functional, organism-based; conditions: time 2.0 day
# [36] = test system: Escherichia coli; assay: Antibacterial activity against Escherichia coli infected in K88-induced enteritis mouse model assessed as reduction in number of colonies in feces at 50 mg/kg, ip administered every 12 hrs for 2 days; format: functional, organism-based; conditions: time 2.0 day
# [37] = species: Mus musculus; assay: Anti-inflammatory activity in ETEC-induced enteritis mouse model assessed as decrease in IL-6 level in colon by ELISA analysis; format: functional, organism-based
# [38] = species: Mus musculus; assay: Anti-inflammatory activity in ETEC-induced enteritis mouse model assessed as decrease in TNF-alpha level in colon by ELISA analysis; format: functional, organism-based
# [39] = species: Mus musculus; assay: Anti-inflammatory activity in ETEC-induced enteritis mouse model assessed as decrease in IL-1beta level in colon by ELISA analysis; format: functional, organism-based
# [40] = species: Mus musculus; assay: Anti-inflammatory activity in ETEC-induced enteritis mouse model assessed as structural changes in intestine by H and E staining based analysis; format: functional, organism-based
structure (smiles),measurement,setting,value
CC[C@H](C)[C@H](NC(=O)[C@@H](NC(=O)[C@@H](CCCNC(=N)N)NC(=O)[C@H](C)NC(=O)[C@H](C)NC(=O)C(N)Cc1cccc2ccccc12)[C@@H](C)CC)C(=O)N[C@@H](CC(C)C)C(=O)N[C@H](CCCNC(=N)N)C(=O)N[C@@H](Cc1c[nH]c2ccccc12)C(=O)N[C@H](CCCNC(=N)N)C(=O)N[C@@H](Cc1ccccc1)C(=O)N[C@@H](CCCNC(=N)N)C(=O)O (stereo not given in full),Activity,[1],Active
same,Activity,[2],Active
same,Activity,[3],Active
same,Activity,[4],Active
same,Activity,[5],Active
same,Activity,[6],Active
same,Activity,[7],Active
same,Activity,[8],Active
same,Activity,[9],Active
same,Activity,[10],Active
same,Activity,[11],Active
same,Activity,[12],Active
same,Activity,[13],Active
same,Activity,[14],Active
same,Activity,[15],Active
same,Activity,[16],Active
same,Activity,[17],Active
same,Activity,[18],Active
same,Activity,[19],Active
same,Activity,[20],Active
same,Activity,[21],Active
same,Activity,[22],Active
same,Activity,[23],Active
same,Activity,[24],Active
same,Activity,[25],inactive
same,Activity,[26],Active
same,Activity,[27],Dose-dependent-effect
same,Activity,[28],Active
same,Activity,[29],Active
same,Activity,[30],Active
same,Activity,[31],Active
same,Activity,[32],Active
same,Activity,[33],Active
same,Activity,[34],Active
same,Activity,[35],Active
same,Activity,[36],Active
same,Activity,[37],Active
same,Activity,[38],Active
same,Activity,[39],Active
same,Activity,[40],Active
